TGI and GI50 data for one compound are collected here from PubChem BioAssay (NCI).

Some test systems named below: IGROV1 ovarian; MCF7 breast; SNB-75 CNS; XF 498 CNS; UO-31 renal; SF-295 CNS.
Holding throughout (experiment): inhibition of tumour cell growth, NCI panel, 48 h

Molecules are shown by their SMILES.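 Cells were grown in 96-well plates and exposed to each compound for 48 hours at five concentrations; endpoints were interpolated linearly between bracketing concentrations, or set to the highest concentration if not reached. GI50 is the concentration that inhibits growth by half. TGI is the concentration that stops growth completely.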

As to `[Cl-].[Rh+3].c1ccc(-c2ccnc3c2ccc2c(-c4ccccc4)ccnc23)cc1.c1ccc(-c2ccnc3c2ccc2c(-c4ccccc4)ccnc23)cc1.c1ccc(-c2ccnc3c2ccc2c(-c4ccccc4)ccnc23)cc1`, the TGI was > 100 µM in the assay with IGROV1 ovarian; > 100 µM with MCF7 breast; > 100 µM in the assay with SNB-75 CNS; 89.3 µM with XF 498 CNS; > 100 µM in the assay on UO-31 renal; > 100 µM with SF-295 CNS. Also, the GI50 is 71.3 µM in the assay on MCF7 breast, 23.1 µM in the assay with XF 498 CNS and 31.3 µM in the assay on SF-295 CNS.
